# Laboratory results published in ChEMBL document CHEMBL4417621, “Methods to identify tas2r modulators” (2013).
# Experiments:
# Format in all cases: functional, cell-based
# [1] = target: T1, Taste receptor type 2 member 46 (Homo sapiens) (UniProt P59540); assay: Activation of full-length human TAS2R46 expressed in HEK293T/Galpha16-gustducin 44 cells assessed as effect on calcium flux by measuring deltaF/F0 ratio by Fluo-4 dye based FLIPR assay
# T1 sequence (whole entry): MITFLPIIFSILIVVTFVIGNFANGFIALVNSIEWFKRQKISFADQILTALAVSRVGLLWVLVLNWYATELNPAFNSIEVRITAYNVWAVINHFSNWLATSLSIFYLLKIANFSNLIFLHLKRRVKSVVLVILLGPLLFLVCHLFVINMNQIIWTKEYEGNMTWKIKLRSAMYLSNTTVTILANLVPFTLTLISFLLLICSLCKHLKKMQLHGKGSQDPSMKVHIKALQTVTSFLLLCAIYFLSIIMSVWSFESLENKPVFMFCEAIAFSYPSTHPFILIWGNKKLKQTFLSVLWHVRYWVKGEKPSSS
# [2] = target: T1, Taste receptor type 2 member 46 (Homo sapiens); assay: Activation of full-length human TAS2R46 expressed in HEK293T/Galpha16-gustducin 44 cells assessed as effect on calcium flux by measuring deltaF/F0 ratio at 1.5625 mM by Fluo-4 dye based FLIPR assay
# [3] = target: T1, Taste receptor type 2 member 46 (Homo sapiens); assay: Activation of full-length human TAS2R46 expressed in HEK293T/Galpha16-gustducin 44 cells assessed as effect on calcium flux by measuring deltaF/F0 ratio at 0.3906 mM by Fluo-4 dye based FLIPR assay
# [4] = target: T2, Taste receptor type 2 member 10 (Homo sapiens) (UniProt Q9NYW0); assay: Activation of full-length human TAS2R10 expressed in HEK293T/Galpha16-gustducin 44 cells assessed as effect on calcium flux by measuring deltaF/F0 ratio at 0.3906 mM by Fluo-4 dye based FLIPR assay
# T2 sequence (whole entry): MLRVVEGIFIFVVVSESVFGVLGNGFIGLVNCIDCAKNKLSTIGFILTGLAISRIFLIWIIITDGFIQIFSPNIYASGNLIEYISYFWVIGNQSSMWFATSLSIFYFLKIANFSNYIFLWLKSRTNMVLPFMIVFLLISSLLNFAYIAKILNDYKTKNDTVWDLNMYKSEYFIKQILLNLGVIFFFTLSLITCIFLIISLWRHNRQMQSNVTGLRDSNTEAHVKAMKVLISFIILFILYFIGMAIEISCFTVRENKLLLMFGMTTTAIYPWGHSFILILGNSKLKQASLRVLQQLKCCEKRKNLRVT
# [5] = target: T2, Taste receptor type 2 member 10 (Homo sapiens); assay: Activation of full-length human TAS2R10 expressed in HEK293T/Galpha16-gustducin 44 cells assessed as effect on calcium flux by measuring deltaF/F0 ratio by Fluo-4 dye based FLIPR assay
# [6] = target: T3, Taste receptor type 2 member 1 (Homo sapiens) (UniProt Q9NYW7); assay: Activation of full-length human TAS2R1 expressed in HEK293T/Galpha16-gustducin 44 cells assessed as effect on calcium flux by measuring deltaF/F0 ratio at 0.7813 mM by Fluo-4 dye based FLIPR assay
# T3 sequence (whole entry): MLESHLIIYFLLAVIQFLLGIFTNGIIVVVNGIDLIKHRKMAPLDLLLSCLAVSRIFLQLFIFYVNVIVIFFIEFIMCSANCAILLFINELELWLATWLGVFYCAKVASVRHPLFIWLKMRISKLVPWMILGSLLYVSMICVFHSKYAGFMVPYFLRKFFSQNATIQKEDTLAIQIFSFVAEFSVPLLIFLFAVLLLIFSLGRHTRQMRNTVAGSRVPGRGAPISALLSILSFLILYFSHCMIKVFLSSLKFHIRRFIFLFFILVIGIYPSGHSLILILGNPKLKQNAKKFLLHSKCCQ
# [7] = target: T2, Taste receptor type 2 member 10 (Homo sapiens); assay: Activation of full-length human TAS2R10 expressed in HEK293T/Galpha16-gustducin 44 cells assessed as effect on calcium flux by measuring deltaF/F0 ratio at 3.125 mM by Fluo-4 dye based FLIPR assay
# [8] = target: T1, Taste receptor type 2 member 46 (Homo sapiens); assay: Activation of full-length human TAS2R46 expressed in HEK293T/Galpha16-gustducin 44 cells assessed as effect on calcium flux by measuring deltaF/F0 ratio at 6.25 mM by Fluo-4 dye based FLIPR assay
# [9] = target: T1, Taste receptor type 2 member 46 (Homo sapiens); assay: Activation of full-length human TAS2R46 expressed in HEK293T/Galpha16-gustducin 44 cells assessed as effect on calcium flux by measuring deltaF/F0 ratio at 50 mM by Fluo-4 dye based FLIPR assay
# [10] = target: T1, Taste receptor type 2 member 46 (Homo sapiens); assay: Activation of full-length human TAS2R46 expressed in HEK293T/Galpha16-gustducin 44 cells assessed as effect on calcium flux by measuring deltaF/F0 ratio at 0.7813 mM by Fluo-4 dye based FLIPR assay
# [11] = target: T4, Taste receptor type 2 member 31 (Homo sapiens) (UniProt P59538); assay: Activation of full-length human TAS2R44 expressed in HEK293T/Galpha16-gustducin 44 cells assessed as effect on calcium flux by measuring deltaF/F0 ratio at 1.5625 mM by Fluo-4 dye based FLIPR assay (reference value: 0.017 +/ - 0.008)
# T4 sequence (whole entry): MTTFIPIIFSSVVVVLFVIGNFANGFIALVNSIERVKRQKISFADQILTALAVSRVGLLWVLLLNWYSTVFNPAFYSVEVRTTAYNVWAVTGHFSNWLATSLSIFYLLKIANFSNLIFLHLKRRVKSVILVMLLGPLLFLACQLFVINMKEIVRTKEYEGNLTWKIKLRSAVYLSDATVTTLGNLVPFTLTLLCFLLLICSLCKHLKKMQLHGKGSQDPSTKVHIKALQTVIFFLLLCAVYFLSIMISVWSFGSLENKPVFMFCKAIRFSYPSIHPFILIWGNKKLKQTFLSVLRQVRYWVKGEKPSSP
# [12] = target: T5, Taste receptor type 2 member 1 (Homo sapiens, UniProt Q9NYW7); assay: (§1) Activation of full-length human TAS2R1 expressed in HEK293T/Galpha16-gustducin 44 cells assessed as effect on calcium flux by measuring deltaF/F0 ratio by Fluo-4 dye based FLIPR assay
# T5 sequence (Q9NYW7 whole entry): T3 sequence (whole entry)
# [13] = target: T3, Taste receptor type 2 member 1 (Homo sapiens); assay: as §1
# [14] = target: T6, Taste receptor type 2 member 31 (Homo sapiens, UniProt P59538); assay: Agonist activity at full-length human TAS2R44 expressed in HEK293T/Galpha16-gustducin 44 cells assessed as effect on calcium flux by measuring deltaF/F0 ratio by Fluo-4 dye based FLIPR assay
# T6 sequence (P59538 whole entry): T4 sequence (whole entry)
# [15] = target: T4, Taste receptor type 2 member 31 (Homo sapiens); assay: Activation of full-length human TAS2R44 expressed in HEK293T/Galpha16-gustducin 44 cells assessed as effect on calcium flux by measuring deltaF/F0 ratio at 100 mM by Fluo-4 dye based FLIPR assay (reference value: 0.021 +/ - 0.012)
# [16] = target: T2, Taste receptor type 2 member 10 (Homo sapiens); assay: Activation of full-length human TAS2R10 expressed in HEK293T/Galpha16-gustducin 44 cells assessed as effect on calcium flux by measuring deltaF/F0 ratio at 6.25 mM by Fluo-4 dye based FLIPR assay
# [17] = target: T3, Taste receptor type 2 member 1 (Homo sapiens); assay: Activation of full-length human TAS2R1 expressed in HEK293T/Galpha16-gustducin 44 cells assessed as effect on calcium flux by measuring deltaF/F0 ratio at 25 mM by Fluo-4 dye based FLIPR assay
smiles,measurement,setting,value
OC[C@H]1O[C@H](O[C@]2(CCl)O[C@H](CCl)[C@@H](O)[C@@H]2O)[C@H](O)[C@@H](O)[C@H]1Cl [SUCRALOSE],Activity,[1],Dose-dependent effect
same,Ratio,[2],0.035
same,Ratio,[3],0.041
same,Ratio,[4],0.05
same,Activity,[5],Dose-dependent effect
same,Ratio,[6],0.05
same,Ratio,[7],0.053
same,Ratio,[8],0.057
same,Ratio,[9],0.171
same,Ratio,[10],0.038
same,Ratio,[11],0.026
same,EC50,[12],36.3 mM
same,Activity,[13],Dose-dependent effect
same,EC50,[14],16.7 mM
same,Ratio,[15],0.26
same,Ratio,[16],0.053
same,Ratio,[17],0.104
